The source of these data is patent publication US11312676B2, “Small molecule stimulators of steroid receptor coactivator proteins and their use in the treatment of cancer” (BAYLOR COLLEGE OF MEDICINE, priority 2014, dated 2022).

The structures appear in SMILES notation.

For one data set, the target named is T1, SRC-2 (Homo sapiens, UniProt Q15596).
T1 construct: expressed in transfected cells; host or cells: HeLa
In words: Gal4 luciferase reporter assay (pBIND-SRC-2 + pG5-LUC) in HeLa cells. The format is cell-based. As to conditions: 24-hour treatment, 5-8 μM, maximum over SRC-1/-2/-3. Here is the method: (§1) The constructs expressing the Gal4 responsive luciferase reporter (pG5-luc), Gal4 DBD fusion with SRC-1, […] (pBIND-SRC-1/-2/-3), MMP2 or MMP13 promoter driven luciferase reporter (MMP2-luc, MMP13-luc) were prepared. Twenty-four hours before transfection, HeLa cells were plated in 24-well dishes. The indicated expression plasmids were transfected into cells using Lipofectamine 2000 according to the manufacturer's instructions.
(§2) After various compound treatments, cells were lysed in luciferase lysis buffer and assayed for luciferase activity using the ONE-Glo luciferase assay system (Promega, Madison, Wis.). All luciferase activities were normalized to protein concentration determined by Bradford assay (Bio-Rad, Hercules, Calif.).
A general note: In a reporter assay the amount or activity of a reporter protein is the signal.

The target of another data set is T2, SRC-3 (Homo sapiens, UniProt Q9Y6Q9).
T2 construct: expressed in transfected cells; host or cells: HeLa
T2 sequence (Q9Y6Q9 whole entry): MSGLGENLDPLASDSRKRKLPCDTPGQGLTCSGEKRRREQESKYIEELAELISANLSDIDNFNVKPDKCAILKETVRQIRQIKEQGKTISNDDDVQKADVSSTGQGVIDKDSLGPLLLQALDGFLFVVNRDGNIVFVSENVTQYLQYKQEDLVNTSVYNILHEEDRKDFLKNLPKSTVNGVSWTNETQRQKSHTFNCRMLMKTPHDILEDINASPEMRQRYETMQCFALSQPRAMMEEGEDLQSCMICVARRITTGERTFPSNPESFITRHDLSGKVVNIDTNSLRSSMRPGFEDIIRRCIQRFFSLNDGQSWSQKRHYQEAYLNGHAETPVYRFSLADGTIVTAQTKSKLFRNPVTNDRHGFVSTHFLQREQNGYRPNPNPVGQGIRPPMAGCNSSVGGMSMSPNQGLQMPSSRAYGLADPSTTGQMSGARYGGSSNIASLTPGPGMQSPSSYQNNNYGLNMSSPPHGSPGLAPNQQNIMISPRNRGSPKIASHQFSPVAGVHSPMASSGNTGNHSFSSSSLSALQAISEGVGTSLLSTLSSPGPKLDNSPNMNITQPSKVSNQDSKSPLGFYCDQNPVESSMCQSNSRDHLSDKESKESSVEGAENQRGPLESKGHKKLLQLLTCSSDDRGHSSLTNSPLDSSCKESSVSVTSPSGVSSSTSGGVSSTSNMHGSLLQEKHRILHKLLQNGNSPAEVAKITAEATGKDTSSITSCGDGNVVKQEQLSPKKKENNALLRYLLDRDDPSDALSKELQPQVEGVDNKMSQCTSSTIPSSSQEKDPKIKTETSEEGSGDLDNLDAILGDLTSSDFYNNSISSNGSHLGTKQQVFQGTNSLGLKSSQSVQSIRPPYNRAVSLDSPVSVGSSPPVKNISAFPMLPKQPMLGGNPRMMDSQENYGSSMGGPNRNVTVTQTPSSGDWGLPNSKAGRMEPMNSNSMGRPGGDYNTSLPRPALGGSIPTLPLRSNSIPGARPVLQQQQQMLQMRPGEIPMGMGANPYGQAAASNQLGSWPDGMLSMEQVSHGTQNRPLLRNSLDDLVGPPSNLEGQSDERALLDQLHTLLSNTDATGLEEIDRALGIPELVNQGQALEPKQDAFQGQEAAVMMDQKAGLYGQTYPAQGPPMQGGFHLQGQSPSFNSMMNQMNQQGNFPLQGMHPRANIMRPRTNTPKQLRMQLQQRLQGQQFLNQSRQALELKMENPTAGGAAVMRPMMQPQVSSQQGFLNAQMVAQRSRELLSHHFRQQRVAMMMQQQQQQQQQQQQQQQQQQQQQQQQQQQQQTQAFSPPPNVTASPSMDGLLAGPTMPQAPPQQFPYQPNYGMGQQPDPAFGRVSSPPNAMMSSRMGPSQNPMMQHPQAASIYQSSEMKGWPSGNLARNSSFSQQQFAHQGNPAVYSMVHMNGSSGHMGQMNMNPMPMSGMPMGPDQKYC
In words: Gal4 luciferase reporter assay (pBIND-SRC-3 + pG5-LUC) in HeLa cells. The format is cell-based. Here is the method:
as §1, §2
HeLa cells were transfected with a Gal4 responsive luciferase reporter (pG5-luc) and a construct encoding SRC-1, SRC-2 or SRC-3 fused with the DNA binding domain of Gal4 (pBIND-SRC-1, pBIND-SRC-2 or pBIND-SRC-3) were treated with the indicated compounds.

For the next data set, the system named is PGC-1α. In words: Gal4-PGC-1α + pG5-LUC luciferase assay in HeLa cells. To be noted: 24 hours, 2-10 μM. The format is cell-based.
For another data set, the system named is MMP2 promoter. In words: MMP2-luc reporter with SRC-3 expression vector in HeLa cells. The format is cell-based. To be noted: 24 hours. Here is the method: as §1, §2
In the next data set the test system is MMP13 promoter. As to the kind of experiment: MMP13-luc reporter with SRC-3 expression vector in HeLa cells. The format is cell-based. To be noted: 24 hours. How it is done:
as §1, §2

Data set [1] deals with T3, receptor interacting domain (RID) of SRC-3 (Homo sapiens, UniProt Q9Y6Q9).
T3 construct: A total of 1.5 μM of GST SRC-3 RID, CID or bHLH was placed in a fluorescence cuvette; made in house
T3 sequence (Q9Y6Q9 582-840 limits assumed): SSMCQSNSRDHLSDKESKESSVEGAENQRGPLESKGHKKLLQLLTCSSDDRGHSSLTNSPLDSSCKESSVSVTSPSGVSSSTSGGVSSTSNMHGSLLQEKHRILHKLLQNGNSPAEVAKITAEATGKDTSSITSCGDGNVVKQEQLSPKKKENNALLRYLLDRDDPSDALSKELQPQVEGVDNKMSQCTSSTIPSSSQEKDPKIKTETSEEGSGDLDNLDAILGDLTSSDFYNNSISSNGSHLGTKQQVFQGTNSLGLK
In words: Fluorescence spectroscopy, intrinsic fluorescence quenching of GST SRC-3 RID. Type of data set: binding. As to conditions: 1.5 μM GST SRC-3 RID, excitation 278 nm; read-out: half-affecting concentration of intrinsic fluorescence quenching, SRC-3 RID. Here is the method:
(§3) Fluorescence spectrometric measurements were performed on a SLM 48000S fluorescence spectrophotometer (SLM-Aminco, Rochester, N.Y.) and an Agilent Cary Eclipse Fluorescence spectrophotometer (Agilent Technologies, Inc., Santa Clara, Calif.) using the GST fusion proteins of different portions of SRC-3 expressed and purified. A total of 1.5 μM of GST SRC-3 RID, CID or bHLH was placed in a fluorescence cuvette and excited by UV light at a wavelength of 278 nm with a 2 nm bandwidth and the emission spectra were recorded from 290 nm to above 500 nm with a bandwidth of 4 nm. The aliquot size of test compound was maintained below 5% of the total sample volume in order to minimize the effects of dilution.

In data set [2] the target is T4, basic helix-loop-helix (bHLH) domain of SRC-3 (Homo sapiens, UniProt Q9Y6Q9).
T4 construct: MCB-613 also affected the fluorescence of the basic helix-loop-helix (bHLH) domain; made in house
T4 sequence (Q9Y6Q9 25-82 limits assumed): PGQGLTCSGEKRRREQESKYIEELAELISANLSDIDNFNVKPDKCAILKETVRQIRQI
In words: Fluorescence spectroscopy, intrinsic fluorescence of GST SRC-3 bHLH. The format is binding. As to conditions: 1.5 μM GST SRC-3 bHLH. How it is done:
as §3

For data set [3], the target named is T5, CBP interacting domain (CID) of SRC-3 (Homo sapiens, UniProt Q9Y6Q9).
T5 construct: made in house
T5 sequence (Q9Y6Q9 1023-1093 limits assumed): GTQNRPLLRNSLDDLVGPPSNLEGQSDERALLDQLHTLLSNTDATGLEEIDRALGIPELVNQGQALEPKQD
In words: Fluorescence spectroscopy, intrinsic fluorescence quenching of GST SRC-3 CID. To be noted: 1.5 μM GST SRC-3 CID. The format is binding. How it is done:
as §3

The next data set has as its system MCF-7 (breast) cells. As to the kind of experiment: MTS cell viability assay, MCF-7. The format is cell-based. To be noted: MCF-7, 48 hours. How it is done: (§4) Cell lines were maintained in DMEM (HeLa, MCF-7, HepG2), RPMI 1640 (H1299), or DMEM/F12 (PC-3) supplemented with 10% fetal calf serum, penicillin and streptomycin (100 U/ml). Primary mouse hepatocytes were isolated and cultured. Mouse embryonic fibroblasts (MEF) were cultured in DMEM. All cells were maintained at 37° C. under 5% CO2.
(§5) Cells were seeded in 96-well plates and allowed to reach 70% to 80% confluence. After indicated compound treatments, relative numbers of viable cells were measured by MTS assay using the Cell Titer 96 Aqueous One Solution Cell Proliferation Assay (Promega).
(In general: Formazan colour is commonly taken as a measure of viable cells.)

For the next data set, the system named is PC-3 (prostate) cells. In words: MTS cell viability assay, PC-3. Type of data set: cell-based. To be noted: PC-3, 48 hours. How it is done: as §4, §5
Another data set deals with HepG2 (liver) cells. In words: MTS cell viability assay, HepG2. Type of data set: cell-based. As to conditions: HepG2, 48 hours. Here is the method: as §4, §5
The test system of data set [4] is mouse primary hepatocytes. In words: MTS cell viability assay, mouse primary hepatocytes. The format is cell-based. As to conditions: 48 hours. Here is the method: as §4, §5
Another data set deals with intracellular ROS levels. In words: Measurement of reactive oxygen species with CM-H2DCFDA. The format is cell-based. To be noted: 30 minutes treatment. Here is the method: Cells were loaded with 10 μM general ROS indicator CM-H2DCFDA in serum free DMEM for 30 minutes at 37° C. in the dark. After a 5-minute recovery in complete DMEM, cells were treated with indicated concentrations of MCB-613 for 30 minutes, then fixed and examined by fluorescence microscopy.

Data set [5] relates to HeLa cells. As to the kind of experiment: MTS cell viability assay, HeLa cells. Type of data set: cell-based. As to conditions: SRC-3 KO vs WT HeLa, 24 hours.
Data set [6] relates to SRC-1, SRC-2 and SRC-3 protein levels. As to the kind of experiment: Immunoblot of SRC protein levels in HeLa cells. The format is cell-based. To be noted: 24 hours. How it is done: (§6) For Western blotting, cells were harvested and lysed in lysis buffer (50 mM Tris, pH 8.0, 150 mM NaCl, 10% glycerol, 0.5% NP40, protease and phosphatase inhibitor) and then centrifuged for 15 min at 14000 rpm at 4° C. After total cellular protein concentration was determined by Bradford analysis (Bio-Rad, Hercules, Calif.), protein lysates were loaded onto and resolved by sodium dodecyl sulfate-polyacrylamide gel electrophoresis (SDS-PAGE) and transferred to PVDF membranes (BioRad) which were blocked and incubated with indicated antibodies. For immunoprecipitation, 10 μg of plasmid encoding FLAG-SRC-3 was transfected into HeLa cells with 90% confluence in one 10 cm plate with lipofectamine 2000 (Invitrogen). Twenty-four hours after transfection, the cells were treated with MCB-613 for one hour and lysed with lysis buffer (25 mM Tris-Cl pH7.5, 150 mM NaCl, 5% glycerol, 1 mM EDTA, 1% Triton X-100, protease and phosphatase inhibitor) at 4° C. After a 30-second sonication, the lysate was cleared by centrifugation at 14000 rpm at 4° C. for 15 minutes and was incubated with anti-Flag-M2 agarose affinity gel (Sigma) for four hours. The agarose gel was washed four times with washing buffer (25 mM Tris pH 8.0, 150 mM NaCl, 1 mM EDTA, 1% Triton X-100) and resuspended with SDS loading buffer for Western blotting.
On the technique in general: Immunoblotting shows a protein as a band on a membrane.

The next data set has as its system MMP13 expression. As to the kind of experiment: qRT-PCR of endogenous MMP13 in MDA-MB-231 cells. The format is cell-based. As to conditions: 24 hours.
In data set [7] the test system is HeLa cells. As to the kind of experiment: Western blot of stress, UPR, autophagy and apoptosis markers in HeLa cells. The format is cell-based. Here is the method:
as §6

T1 sequence (Q15596 whole entry): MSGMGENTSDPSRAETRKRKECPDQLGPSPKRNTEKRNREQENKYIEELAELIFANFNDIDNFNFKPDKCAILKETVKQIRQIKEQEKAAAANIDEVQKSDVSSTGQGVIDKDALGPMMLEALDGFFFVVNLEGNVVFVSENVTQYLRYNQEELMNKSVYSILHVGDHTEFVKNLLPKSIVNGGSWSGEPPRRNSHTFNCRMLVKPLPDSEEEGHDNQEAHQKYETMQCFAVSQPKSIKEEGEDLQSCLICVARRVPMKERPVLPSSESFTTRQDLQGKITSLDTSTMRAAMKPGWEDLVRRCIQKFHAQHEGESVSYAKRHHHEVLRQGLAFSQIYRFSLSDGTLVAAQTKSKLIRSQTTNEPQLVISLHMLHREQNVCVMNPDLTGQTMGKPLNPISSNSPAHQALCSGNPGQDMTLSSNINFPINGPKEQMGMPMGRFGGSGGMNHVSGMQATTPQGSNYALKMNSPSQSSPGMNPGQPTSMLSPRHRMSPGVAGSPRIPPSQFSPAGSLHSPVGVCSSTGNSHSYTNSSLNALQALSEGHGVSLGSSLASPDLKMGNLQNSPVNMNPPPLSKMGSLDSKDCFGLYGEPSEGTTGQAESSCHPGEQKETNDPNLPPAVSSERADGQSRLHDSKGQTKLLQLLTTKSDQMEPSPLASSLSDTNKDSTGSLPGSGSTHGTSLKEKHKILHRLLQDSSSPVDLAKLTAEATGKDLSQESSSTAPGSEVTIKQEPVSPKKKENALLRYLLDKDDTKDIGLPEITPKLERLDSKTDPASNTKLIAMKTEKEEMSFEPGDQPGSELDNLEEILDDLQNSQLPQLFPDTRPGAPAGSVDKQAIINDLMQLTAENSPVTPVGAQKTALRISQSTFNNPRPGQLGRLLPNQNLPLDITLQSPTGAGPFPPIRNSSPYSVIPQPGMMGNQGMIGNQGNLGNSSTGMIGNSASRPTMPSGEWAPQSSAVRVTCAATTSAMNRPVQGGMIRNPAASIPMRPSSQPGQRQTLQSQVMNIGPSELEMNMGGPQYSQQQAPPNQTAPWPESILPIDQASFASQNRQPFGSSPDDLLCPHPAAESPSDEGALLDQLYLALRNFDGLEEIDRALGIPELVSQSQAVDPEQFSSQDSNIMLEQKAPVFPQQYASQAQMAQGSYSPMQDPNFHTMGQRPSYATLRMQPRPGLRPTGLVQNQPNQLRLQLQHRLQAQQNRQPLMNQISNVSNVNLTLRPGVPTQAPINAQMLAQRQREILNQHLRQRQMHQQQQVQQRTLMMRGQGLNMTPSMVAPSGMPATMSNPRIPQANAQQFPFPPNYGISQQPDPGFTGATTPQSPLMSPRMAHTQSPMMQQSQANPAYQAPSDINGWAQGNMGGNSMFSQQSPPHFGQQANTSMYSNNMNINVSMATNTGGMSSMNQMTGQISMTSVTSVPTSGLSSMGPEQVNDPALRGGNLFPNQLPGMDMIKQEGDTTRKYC

On to `CCC1CC(=Cc2cccnc2)C(=O)C(=Cc2cccnc2)C1` (stereo not shown) [MCB-613, 4-Ethyl-2,6-bis-pyridin-3-ylmethylene-cyclohexanone], for which the “induction in the activity of pBIND-SRC-2” value at SRC-2 is recorded as no more than 160 fold. Besides, the “induction in the activity of pBIND-SRC-3” value on SRC-3 (24-hour treatment, 5-8 μM, maximum over SRC-1/-2/-3) is reported as no more than 160 fold. In addition, the “SRC activity after 4 hours of treatment” value at SRC-3 (4 hours, 6-10 μM) is given as “significant increase”. Further, the “stimulation of GAL4-PGC-1α coactivator fusion protein” value in the data set with PGC-1α is “failing to stimulate”. Further, the “SRC-3's coactivation of the MMP2 promoter” value in the data set on MMP2 promoter is reported as “greatly enhanced”. The “SRC-3's coactivation of the MMP13 promoter” value in the data set with MMP13 promoter is given as “greatly enhanced”. In addition, the EC50 in data set [1] worked out at 10 µM. Further, the “concentration affecting the fluorescence of the bHLH domain” value in data set [2] turned out to be 2 µM. The “concentration required to detect fluorescence quenching of the CID” value in [3] is on record as “at least 20 μM”. The “cytotoxicity, cell viability” value with MCF-7 (breast) cells, in the data set on PC-3 (prostate) cells and in the data set with HepG2 (liver) cells was “efficiently kill” each time. In [4], the “cytotoxicity to normal cells” value is reported as “resistant”. The “intracellular ROS levels” value in the data set on intracellular ROS levels was “rapid and marked increase”. In addition, the “viability of SRC-3 KO HeLa cells compared with WT cells” value in the data set on HeLa cells [5] is recorded as “less affected”. For the same molecule, the “SRC-1, SRC-2 and SRC-3 protein levels” value in data set [6] is listed as “decreases”. In addition, in the data set on MMP13 expression, the “endogenous MMP13 expression” value was “activated”. In the data set on HeLa cells [7] (4-5 hours), the “proteasome function and ER stress (polyubiquitinated proteins, UPR markers)” value was “leads to proteasome dysfunction and ER stress”. The “autophagy and apoptosis markers” value in the data set with HeLa cells [7] (24 hours) is “led to the induction of LC3BII and caspase-3 cleavage”.
